This is an account of results in patent US12378243B2, “Quinoline compounds as inhibitors of KRAS” (Incyte Corporation, priority 2021, dated 2025).

For series [1], the target named is KRAS G12V mutant (Homo sapiens, UniProt P01116, G12V). Briefly: GDP-GTP exchange assay, KRAS G12V. Format: biochemical. Particulars: bodipy loaded KRAS G12V 2.5 nM; 3 hours incubation after adding GppNHp-SOS1 mixture; read-out: G12V_exchange.
Series [2] relates to Caco-2 cells. Briefly: Caco2 assay (permeability, A-B). Format: in vitro ADME. Particulars: Table 4; Papp absorptive direction (A-B), test compound 50 μM, 120 minutes at 37° C. Put shortly: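 Caco-2 monolayers grown 22-25 days on Transwells, used only at TEER ≥300 Ω·cm^2. Compound at 50 μM in HBSS added apically, receiver HBSS with 4% BSA; 120 min at 37 °C. LCMS quantification; Papp from receiver flux slope, membrane area and initial donor amount.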
Background: Caco-2 cells form a polarised layer with tight junctions and transporters.

In series [3] the target is KRAS G12D (Homo sapiens, UniProt P01116, G12D). Briefly: GDP-GTP exchange assay, KRAS G12D. Format: biochemical. Particulars: bodipy-loaded KRAS G12D 2.5 nM, GppNHp 500 uM, SOS1 150 nM; 4 hours pre-incubation, 2 hours incubation; read-out: G12D_exchange. In outline: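 Nucleotide exchange started with 1 mM GppNHp and 300 nM SOS1, then 2 h at ambient temperature. IC50 from four-parameter logistic fit with variable Hill slope.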
Chain of KRAS G12D (P01116 1-188 isoform P01116-2 G12D): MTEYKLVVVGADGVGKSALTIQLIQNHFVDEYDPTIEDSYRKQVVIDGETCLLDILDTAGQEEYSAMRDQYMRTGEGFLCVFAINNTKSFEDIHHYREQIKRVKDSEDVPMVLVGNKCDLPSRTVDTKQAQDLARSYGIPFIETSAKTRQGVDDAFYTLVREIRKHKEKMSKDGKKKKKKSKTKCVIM

Where only a bound is given, the exact number is not on record here.

Chain of KRAS G12V mutant (P01116 1-188 isoform P01116-2 G12V): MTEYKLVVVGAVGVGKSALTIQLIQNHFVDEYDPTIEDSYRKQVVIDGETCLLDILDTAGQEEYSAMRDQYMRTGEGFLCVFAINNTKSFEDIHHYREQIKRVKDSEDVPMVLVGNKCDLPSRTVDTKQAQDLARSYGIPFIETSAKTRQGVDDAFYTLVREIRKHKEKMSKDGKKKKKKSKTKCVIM

Regarding `[2H]C([2H])([2H])c1nc2c(F)c(-c3cccc(Cl)c3Cl)c(CCC#N)cc2c2c1cc([C@H]1CCCN1C(=O)N1CC(F)(F)C1)n2[C@H]1[C@H]2CN[C@@H]1C2` [Example 42, 3-(1-((1R,4R,5S)-2-Azabicyclo[2.1.1]hexan-5-yl)-7-(2,3-dichlorophenyl)-2-((R)-1-(3,3-difluoroazetidine-1-carbonyl)pyrrolidin-2-yl)-6-fluoro-4-(methyl-d3)-1H-pyrrolo[3,2-c]quinolin-8-yl)propanenitrile], the IC50 in series [1] and in series [3] was below 0.1 µM throughout. Further, the Caco-2 result in series [2] was “++ (a Caco-2 value of >0.5 but ≤1)”.

With `N#CCCc1cc2c(ncc3cc([C@H]4CCCN4C(=O)N4CC(F)(F)C4)n([C@H]4[C@H]5CN[C@@H]4C5)c32)c(F)c1-c1cccc(Cl)c1Cl` [Example 43, 3-(1-((1R,4R,5S)-2-Azabicyclo[2.1.1]hexan-5-yl)-7-(2,3-dichlorophenyl)-2-((R)-1-(3,3-difluoroazetidine-1-carbonyl)pyrrolidin-2-yl)-6-fluoro-1H-pyrrolo[3,2-c]quinolin-8-yl)propanenitrile], the IC50 in series [1] and in series [3] was below 0.1 µM each time. For the same molecule, the Caco-2 result in series [2] is given as “+++ (a Caco-2 value of >1)”.

Take `CNC(=O)c1ccc(-c2nc3c(F)c(-c4cccc5ccc(F)cc45)c(CCC#N)cc3c3c2cc([C@@H](C)N2CCOCC2=O)n3[C@H]2[C@H]3CN[C@@H]2C3)cn1` [Example 45, 5-(1-((1R,4R,5S)-2-Azabicyclo[2.1.1]hexan-5-yl)-8-(2-cyanoethyl)-6-fluoro-7-(7-fluoronaphthalen-1-yl)-2-((R)-1-(3-oxomorpholino)ethyl)-1H-pyrrolo[3,2-c]quinolin-4-yl)-N-methylpicolinamide]: the IC50 in series [1] and in series [3] was below 0.1 µM each time. For the same molecule, the Caco-2 entry in series [2] is “+++ (a Caco-2 value of >1)”.

With `C[C@H](c1cc2c(-c3ccc(C(C)(C)O)nc3)nc3c(F)c(-c4cccc5ccc(F)cc45)c(CCC#N)cc3c2n1[C@H]1[C@H]2CN[C@@H]1C2)N1CCOCC1=O` [Example 46, 3-(1-((1R,4R,5S)-2-Azabicyclo[2.1.1]hexan-5-yl)-6-fluoro-7-(7-fluoronaphthalen-1-yl)-4-(6-(2-hydroxypropan-2-yl)pyridin-3-yl)-2-((R)-1-(3-oxomorpholino)ethyl)-1H-pyrrolo[3,2-c]quinolin-8-yl)propanenitrile], the IC50 in series [1] and in series [3] was below 0.1 µM throughout. The Caco-2 entry in series [2] was “+++ (a Caco-2 value of >1)”.

Consider `Cc1cnc(-c2nc3c(F)c(-c4cccc5ccc(F)cc45)c(CCC#N)cc3c3c2cc([C@@H](C)N2CCOCC2=O)n3[C@H]2[C@H]3CN[C@@H]2C3)cn1` [Example 47, 3-(1-((1R,4R,5S)-2-Azabicyclo[2.1.1]hexan-5-yl)-6-fluoro-7-(7-fluoronaphthalen-1-yl)-4-(5-methylpyrazin-2-yl)-2-((R)-1-(3-oxomorpholino)ethyl)-1H-pyrrolo[3,2-c]quinolin-8-yl)propanenitrile], for which the IC50 in series [1] and in series [3] was below 0.1 µM each time. Moreover, in series [2], the Caco-2 entry was “+++ (a Caco-2 value of >1)”.

As for `COC(=O)N1[C@@H](c2cc3c(-c4ccc(C(=O)N(C)C)nc4)nc4c(F)c(-c5cccc(Cl)c5Cl)c(CCC#N)cc4c3n2[C@H]2[C@H]3CN[C@@H]2C3)C[C@H]2C[C@H]21` [Example 48, Methyl (1R,3R,5R)-3-(1-((1R,4R,5S)-2-azabicyclo[2.1.1]hexan-5-yl)-8-(2-cyanoethyl)-7-(2,3-dichlorophenyl)-4-(6-(dimethylcarbamoyl)pyridin-3-yl)-6-fluoro-1H-pyrrolo[3,2-c]quinolin-2-yl)-2-azabicyclo[3.1.0]hexane-2-carboxylate], the IC50 in series [1] and in series [3] was below 0.1 µM throughout. Further, in series [2], the Caco-2 result is “++ (a Caco-2 value of >0.5 but ≤1)”.

As to `Cc1nc2c(F)c(-c3cccc(Cl)c3Cl)c(CCC#N)cc2c2c1cc([C@H]1C[C@H]3C[C@H]3N1C(=O)C1CC1)n2[C@H]1[C@H]2CN[C@@H]1C2` [Example 49, 3-(1-((1R,4R,5S)-2-Azabicyclo[2.1.1]hexan-5-yl)-2-((1R,3R,5R)-2-(cyclopropanecarbonyl)-2-azabicyclo[3.1.0]hexan-3-yl)-7-(2,3-dichlorophenyl)-6-fluoro-4-methyl-1H-pyrrolo[3,2-c]quinolin-8-yl)propanenitrile], the IC50 in series [1] and in series [3] was below 0.1 µM throughout. Further, the Caco-2 result in series [2] is listed as “+++ (a Caco-2 value of >1)”.

With `C[C@H](c1cc2c(-c3ccc(C(C)(C)O)nc3)nc3c(F)c(-c4cccc(Cl)c4Cl)c(CCC#N)cc3c2n1[C@H]1[C@H]2CN[C@@H]1C2)n1ccncc1=O` [Example 50, 3-(1-((1R,4R,5S)-2-Azabicyclo[2.1.1]hexan-5-yl)-7-(2,3-dichlorophenyl)-6-fluoro-4-(6-(2-hydroxypropan-2-yl)pyridin-3-yl)-2-((R)-1-(2-oxopyrazin-1(2H)-yl)ethyl)-1H-pyrrolo[3,2-c]quinolin-8-yl)propanenitrile], the IC50 in series [1] and in series [3] was below 0.1 µM in each case. Further, the Caco-2 result in series [2] is on record as “+++ (a Caco-2 value of >1)”.

As for `COC(=O)N1C[C@@H](F)C[C@@H]1c1cc2c(-c3ccc(C(C)(C)O)nc3)nc3c(F)c(-c4cccc(Cl)c4Cl)c(CCC#N)cc3c2n1[C@H]1[C@H]2CN[C@@H]1C2` [Example 51, Methyl (2R,4S)-2-(1-((1R,4R,5S)-2-azabicyclo[2.1.1]hexan-5-yl)-8-(2-cyanoethyl)-7-(2,3-dichlorophenyl)-6-fluoro-4-(6-(2-hydroxypropan-2-yl)pyridin-3-yl)-1H-pyrrolo[3,2-c]quinolin-2-yl)-4-fluoropyrrolidine-1-carboxylate], the IC50 in series [1] and in series [3] was below 0.1 µM each time. In series [2], the Caco-2 result was “+++ (a Caco-2 value of >1)”.

Take `COC(=O)N1[C@H](C)CC[C@@H]1c1cc2c(-c3ccc(C(C)(C)O)nc3)nc3c(F)c(-c4cccc(Cl)c4Cl)c(CCC#N)cc3c2n1[C@H]1[C@H]2CN[C@@H]1C2` [Example 52, Methyl (2R,5R)-2-(1-((1R,4R,5S)-2-azabicyclo[2.1.1]hexan-5-yl)-8-(2-cyanoethyl)-7-(2,3-dichlorophenyl)-6-fluoro-4-(6-(2-hydroxypropan-2-yl)pyridin-3-yl)-1H-pyrrolo[3,2-c]quinolin-2-yl)-5-methylpyrrolidine-1-carboxylate]: the IC50 in series [1] and in series [3] was below 0.1 µM throughout. The Caco-2 result in series [2] is given as “+++ (a Caco-2 value of >1)”.

`COC(=O)N1CCC[C@@H]1c1c(Cl)c2c(-c3ccc(C(C)(C)O)nc3)nc3c(F)c(-c4cccc(Cl)c4Cl)c(CCC#N)cc3c2n1[C@H]1[C@H]2CN[C@@H]1C2` [Example 53, Methyl (2R)-2-(1-((1R,4R,5S)-2-azabicyclo[2.1.1]hexan-5-yl)-3-chloro-8-(2-cyanoethyl)-7-(2,3-dichlorophenyl)-6-fluoro-4-(6-(2-hydroxypropan-2-yl)pyridin-3-yl)-1H-pyrrolo[3,2-c]quinolin-2-yl)pyrrolidine-1-carboxylate]: the IC50 in series [1] and in series [3] was below 0.1 µM each time. In series [2], the Caco-2 result is “+++ (a Caco-2 value of >1)”.

As to `COC(=O)N[C@H](C)c1cc2c(C)nc3c(F)c(-c4cccc(Cl)c4Cl)c(CCC#N)cc3c2n1[C@H]1[C@H]2CN[C@@H]1C2` [Example 55, Methyl ((1R)-1-(1-((1R,4R,5S)-2-azabicyclo[2.1.1]hexan-5-yl)-8-(2-cyanoethyl)-7-(2,3-dichlorophenyl)-6-fluoro-4-methyl-1H-pyrrolo[3,2-c]quinolin-2-yl)ethyl)carbamate], the IC50 in series [1] and in series [3] was below 0.1 µM throughout. Further, in series [2], the Caco-2 entry was “+++ (a Caco-2 value of >1)”.

Turning to `Cc1nc2c(F)c(-c3cccc(Cl)c3Cl)c(CCC#N)cc2c2c1cc([C@@H](C)NC(=O)C(F)F)n2[C@H]1[C@H]2CN[C@@H]1C2` [Example 56, N-((1R)-1-(1-((1R,4R,5S)-2-Azabicyclo[2.1.1]hexan-5-yl)-8-(2-cyanoethyl)-7-(2,3-dichlorophenyl)-6-fluoro-4-methyl-1H-pyrrolo[3,2-c]quinolin-2-yl)ethyl)-2,2-difluoroacetamide], the IC50 in series [1] and in series [3] was below 0.1 µM in each case. In addition, the Caco-2 result in series [2] was “+++ (a Caco-2 value of >1)”.

As to `Cc1nc2c(F)c(-c3cccc(Cl)c3Cl)c(CCC#N)cc2c2c1cc([C@@H](C)NC(=O)[C@@H]1CCCO1)n2[C@H]1[C@H]2CN[C@@H]1C2` [Example 57, (2S)—N-((1R)-1-(1-((1R,4R,5S)-2-Azabicyclo[2.1.1]hexan-5-yl)-8-(2-cyanoethyl)-7-(2,3-dichlorophenyl)-6-fluoro-4-methyl-1H-pyrrolo[3,2-c]quinolin-2-yl)ethyl)tetrahydrofuran-2-carboxamide], the IC50 in series [1] and in series [3] was below 0.1 µM in each case. In addition, the Caco-2 entry in series [2] is “+++ (a Caco-2 value of >1)”.

Take `Cc1nc2c(F)c(-c3cccc(Cl)c3Cl)c(CCC#N)cc2c2c1cc([C@@H](C)NS(=O)(=O)C1CC1)n2[C@H]1[C@H]2CN[C@@H]1C2` [Example 58, N-((1R)-1-(1-((1R,4R,5S)-2-Azabicyclo[2.1.1]hexan-5-yl)-8-(2-cyanoethyl)-7-(2,3-dichlorophenyl)-6-fluoro-4-methyl-1H-pyrrolo[3,2-c]quinolin-2-yl)ethyl)cyclopropanesulfonamide]: the IC50 in series [1] and in series [3] was below 0.1 µM each time. Moreover, the Caco-2 result in series [2] is “++ (a Caco-2 value of >0.5 but ≤1)”.
